Measurements as given in ChEMBL document CHEMBL5096229, “A 1,2,3-Triazole Derivative of Quinazoline Exhibits Antitumor Activity by Tethering RNF168 to SQSTM1/P62” (J Med Chem, 2022).
Calls of active or inactive are those of the source. The calls are words filed in the database; no cut-off is given here.

Tests used:
[1] = test system: Bacteria; assay: Binding affinity to N-terminal His-tagged bacteria P62; details: filed as activator
[2] = Clearance in BALB/c mouse at 20 mg/kg; type: ADME, organism-based; details: in vivo
[3] = test system: Bacteria; assay: Induction of bacteria His-tagged P62 to GST-tagged RNF168 protein-protein interaction assessed as decrease in H2A ubiquitination level
[4] = Half life in BALB/c mouse at 20 mg/kg; type: ADME, organism-based; details: in vivo
[5] = test system: HCT-116; assay: Induction of cell cycle arrest in human HCT-116 cells assessed as accumulation at G0/G1 phase at 1 uM after 24 hrs by propidium iodide-staining based flow cytometry (reference value: 58.01 +/- 1.77%); type: functional
[6] = target: T1, Sequestosome-1 (Homo sapiens, UniProt Q13501); assay: Binding affinity to N-terminal P62 (1 to 335 residues) in human HCT-116 cells lysates; type: subcellular; details: filed as activator
T1 sequence (Q13501 whole entry, the tested form may be a part): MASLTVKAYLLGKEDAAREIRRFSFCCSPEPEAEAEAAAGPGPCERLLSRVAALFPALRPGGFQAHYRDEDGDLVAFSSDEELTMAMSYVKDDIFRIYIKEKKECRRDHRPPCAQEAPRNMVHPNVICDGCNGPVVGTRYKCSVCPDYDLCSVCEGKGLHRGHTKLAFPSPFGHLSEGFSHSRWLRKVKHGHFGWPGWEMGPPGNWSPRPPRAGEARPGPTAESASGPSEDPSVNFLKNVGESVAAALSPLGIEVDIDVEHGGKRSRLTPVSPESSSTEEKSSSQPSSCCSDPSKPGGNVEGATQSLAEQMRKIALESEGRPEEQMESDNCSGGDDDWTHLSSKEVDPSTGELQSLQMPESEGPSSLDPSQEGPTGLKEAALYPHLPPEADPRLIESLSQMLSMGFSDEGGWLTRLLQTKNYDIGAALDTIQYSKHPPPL

[7] = target: T1, Sequestosome-1; assay: Binding affinity to P62 (unknown origin) by MST assay
[8] = Metabolic stability in human liver microsomes assessed as half life at 0.5 uM by LC-MS analysis; type: ADME, Microsome
[9] = test system: HCT-116; assay: Induction of cell cycle arrest in human HCT-116 cells assessed as accumulation at G2/M phase at 5 uM after 24 hrs by propidium iodide-staining based flow cytometry (reference value: 23.25 +/- 1.38%); type: functional
[10] = test system: HCT-116; assay: Induction of cell cycle arrest in human HCT-116 cells assessed as accumulation at S phase at 1 uM after 24 hrs by propidium iodide-staining based flow cytometry (reference value: 17.17 +/- 0.18%); type: functional
[11] = test system: U2OS; assay: Inhibition of homologous recombinant repair in human U2OS cells assessed as I-SceI induced double […] break pretreated with I-SceI for 36 hrs followed by compound addition and measured after 12 hrs; type: functional, cell-based; details: dose 0.625-2.5 µM, DDE = dose-dependent effect
[12] = test system: HCT-116; assay: Induction of cell cycle arrest in human HCT-116 cells assessed as accumulation at G0/G1 phase at 5 uM after 24 hrs by propidium iodide-staining based flow cytometry (reference value: 58.01 +/- 1.77%); type: functional
[13] = test system: MDA-MB-231; assay: Cytotoxicity against human MDA-MB-231 cells assessed as reduction in cell viability incubated for 72 hrs by MTS assay; type: functional, cell-based; details: MDA-MB-231, 72 h
[14] = Toxicity in BALB/c mouse assessed as animal death at less than 50 mg/kg, ip after 7 days; type: organism-based; details: in vivo, 168 h, time 7 day
[15] = target: E3 ubiquitin-protein ligase RNF168 (Homo sapiens, UniProt Q8IYW5); assay: Inhibition of RNF168 activity in human HCT-116 cells assessed as reduction in gamma-H2AX ubiquitination by immunoblotting assay; type: cell-based
Sequence of E3 ubiquitin-protein ligase RNF168 (Q8IYW5 whole entry, the tested form may be a part): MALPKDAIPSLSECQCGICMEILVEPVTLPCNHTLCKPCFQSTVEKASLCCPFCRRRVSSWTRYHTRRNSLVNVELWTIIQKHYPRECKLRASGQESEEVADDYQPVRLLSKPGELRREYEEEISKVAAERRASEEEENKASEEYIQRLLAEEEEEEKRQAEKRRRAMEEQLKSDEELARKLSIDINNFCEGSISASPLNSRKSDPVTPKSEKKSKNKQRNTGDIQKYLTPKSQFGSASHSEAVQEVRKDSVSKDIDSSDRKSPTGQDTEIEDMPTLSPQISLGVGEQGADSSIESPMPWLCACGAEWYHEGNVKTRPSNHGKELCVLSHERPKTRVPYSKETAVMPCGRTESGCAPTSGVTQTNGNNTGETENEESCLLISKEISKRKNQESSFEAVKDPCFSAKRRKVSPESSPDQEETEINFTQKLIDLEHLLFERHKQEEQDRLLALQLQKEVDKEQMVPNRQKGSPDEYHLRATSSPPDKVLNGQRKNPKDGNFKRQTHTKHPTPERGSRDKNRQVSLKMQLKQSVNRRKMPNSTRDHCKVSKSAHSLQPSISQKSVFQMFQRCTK

[16] = target: T1, Sequestosome-1; assay: Binding affinity to N-terminal P62 LB domain (unknown origin) expressed in HEK293T cells; type: cell-based; details: filed as activator
[17] = Induction of P62 to RNF168 protein-protein interaction (unknown origin) by MST assay; design: species or system Homo sapiens
[18] = Toxicity in BALB/c nude mouse assessed as diarrhea 25 mg/kg, ip after 7 days; type: organism-based; details: in vivo, 168 h, time 7 day
[19] = Toxicity in BALB/c nude mouse assessed as diarrhea 12.5 mg/kg, ip after 7 days; type: organism-based; details: in vivo, 168 h, time 7 day
[20] = target: T2, Androgen receptor (Homo sapiens) (UniProt P10275); assay: Inhibition of AR (unknown origin) at 10 uM
T2 sequence (whole entry): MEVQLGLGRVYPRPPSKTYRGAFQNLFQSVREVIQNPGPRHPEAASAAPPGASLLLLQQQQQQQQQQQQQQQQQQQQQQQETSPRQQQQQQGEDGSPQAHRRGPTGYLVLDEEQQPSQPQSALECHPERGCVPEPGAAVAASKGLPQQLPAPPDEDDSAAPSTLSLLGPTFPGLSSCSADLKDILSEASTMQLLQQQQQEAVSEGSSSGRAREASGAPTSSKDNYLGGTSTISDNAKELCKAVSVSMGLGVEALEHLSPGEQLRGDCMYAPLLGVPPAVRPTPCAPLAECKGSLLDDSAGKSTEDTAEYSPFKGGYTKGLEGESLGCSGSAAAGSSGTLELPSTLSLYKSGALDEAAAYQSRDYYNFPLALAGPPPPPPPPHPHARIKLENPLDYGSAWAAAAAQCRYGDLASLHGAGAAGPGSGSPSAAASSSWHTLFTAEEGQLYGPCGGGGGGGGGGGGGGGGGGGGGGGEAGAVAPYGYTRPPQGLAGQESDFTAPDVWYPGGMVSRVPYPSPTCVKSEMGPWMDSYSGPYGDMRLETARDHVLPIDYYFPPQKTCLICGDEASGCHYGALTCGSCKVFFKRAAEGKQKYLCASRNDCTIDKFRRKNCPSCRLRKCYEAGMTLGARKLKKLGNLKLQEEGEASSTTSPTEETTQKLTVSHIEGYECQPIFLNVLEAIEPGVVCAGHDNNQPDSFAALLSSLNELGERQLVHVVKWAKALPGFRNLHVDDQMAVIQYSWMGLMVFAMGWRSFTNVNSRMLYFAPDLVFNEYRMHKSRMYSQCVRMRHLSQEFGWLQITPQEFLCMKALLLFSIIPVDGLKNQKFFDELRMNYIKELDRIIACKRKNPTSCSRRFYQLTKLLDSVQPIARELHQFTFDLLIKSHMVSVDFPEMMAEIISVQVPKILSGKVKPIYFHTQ

[21] = test system: MCF7; assay: Cytotoxicity against human MCF7 cells assessed as reduction in cell viability incubated for 72 hrs by MTS assay; type: functional, cell-based; details: MCF7, 72 h
[22] = Toxicity in BALB/c mouse assessed as diarrhea at less than 50 mg/kg, ip after 7 days; type: organism-based; details: in vivo, 168 h, time 7 day
[23] = test system: HCT-116; assay: Induction of cell cycle arrest in human HCT-116 cells assessed as accumulation at G2/M phase at 1 uM after 24 hrs by propidium iodide-staining based flow cytometry (reference value: 23.25 +/- 1.38%); type: functional
[24] = Cmax in BALB/c mouse at 10 mg/kg; type: ADME, organism-based; design: dose 10 mg/kg; details: in vivo
[25] = Toxicity in BALB/c nude mouse assessed as animal death 50 mg/kg, ip after 7 days; type: organism-based; details: in vivo, 168 h, time 7 day
[26] = test system: U2OS; assay: Inhibition of NHEJ-mediated double strand break repair in human U2OS cells pretreated with I-SceI for 36 hrs followed by compound addition and measured after 12 hrs; type: functional, cell-based; details: dose 0.625-2.5 µM, DDE = dose-dependent effect
[27] = AUCt in BALB/c mouse at 5 mg/kg; type: ADME, organism-based; design: dose 5 mg/kg; details: in vivo
[28] = test system: HCT-116; assay: Induction of P62 to RNF168 protein-protein interaction in human HCT-116 cells lysates chromatin enriched fraction by immunoblotting assay; type: subcellular
[29] = test system: U2OS; assay: Cytotoxicity against human U2OS cells assessed as reduction in cell viability incubated for 72 hrs by MTS assay; type: functional, cell-based
[30] = test system: HCT-116; assay: Induction of cell cycle arrest in human HCT-116 cells assessed as accumulation at G2/M phase at 2 uM after 24 hrs by propidium iodide-staining based flow cytometry (reference value: 23.25 +/- 1.38%); type: functional
[31] = AUCt in BALB/c mouse at 10 mg/kg; type: ADME, organism-based; design: dose 10 mg/kg; details: in vivo
[32] = Toxicity in BALB/c nude mouse assessed as animal death 25 mg/kg, ip after 7 days; type: organism-based; details: in vivo, 168 h, time 7 day
[33] = Half life in BALB/c mouse at 10 mg/kg; type: ADME, organism-based; details: in vivo

COc1cc(-n2cc(-c3ccc4nc(N)nc(N)c4c3)nn2)cc(OC)c1OC
Activity [1]: Active | clearance [2]: 243 mL/min/kg | Activity [3]: Active | half-life [4]: 22.1 h | Activity [5]: 53% | Activity [6]: Active | Kd [7]: 1490 nM | half-life at 0.5 µM [8]: 7.17 h | Activity [9]: 35.34% | Activity [10]: 24.42% | inhibition [11]: Dde | Activity [12]: 50.82% | IC50 [13]: 1170 nM | Activity [14]: Non-Toxic | inhibition [15]: Active | Activity [16]: Active | Kd [17]: 890 nM | Activity [18]: Toxic | Activity [19]: Toxic | inhibition [20]: Active | IC50 [21]: 2790 nM | Activity [22]: Non-Toxic | Activity [23]: 29.33% | Cmax [24]: 39.9 ng/mL | Activity [25]: Toxic | inhibition [26]: Dde | AUC(0-t) [27]: 215 ng·h/mL | Activity [28]: Active | IC50 [29]: 3640 nM | Activity [30]: 30.79% | AUC(0-t) [31]: 408 ng·h/mL | Activity [32]: Toxic | half-life [33]: 31 h
